“Also recorded” adds a separate entry of the source.
Key:
[1] = test system: HIF-1; assay: T47D cell-based reporter assay (pHRE-luc) for HIF-1 activity; set-up: species or system human; settings: for normalized ratio of pHRE-luc/pGL3-control: T47D
Procedure: Cellular adaptation to hypoxia (low oxygen tension) is primarily mediated via the transcription factor hypoxia-inducible factor-1 (HIF-1), that regulates oxygen homeostasis by activating the expression of genes that increase oxygen availability and those that decrease oxygen consumption. […] In a T47D cell-based reporter assay, a lipid extract sample of the sponge Dendrilla lacunosa activated HIF-1 by 3.56-fold (NIH collection No. C025691, 10 μg mL^−1). Bioassay-guided fractionation of the extract sample (2.6 g) and chemical structure elucidation afforded five known compounds psammaplin E (1), (E,Z)-psammaplin A (2), (E,E)-psammaplin K (3), (E,E)-psammaplin A (4), and bisaprasin (5). To determine the effects of 1–5 on HIF-1 activity, concentration-response studies were performed in a T47D cell-based reporter assay (Figure 1B). An iron chelator (1,10-phenanthroline, 10 μM) was included as a positive control. Compounds 1–4 activated HIF-1 in a biphasic manner. […] Hypoxia (1% O2) and chemical hypoxia (iron chelators or transition metals) represent two common stimuli that activate HIF-1 [24, 25, 26]. Further studies were performed to determine the effects of 1–5 on HIF-1 activity in the presence of other stimuli (1,10-phenanthroline, Figure 1C; hypoxia, Figure 1D). While 1–4 acted synergistically with 1,10-phenanthroline and hypoxia to activate HIF-1, a biphasic pattern of activation similar to that in the absence of stimulus […] was observed. […] Previous studies reported that psammaplins inhibit histone deacetylase (HDAC) enzymes. To determine if HDAC inhibition non-specifically activates HIF-1, concentration-response studies were conducted in T47D cells transfected with the pGL3-control plasmid. […] One possible scenario is that these compounds incur significant amount of cellular stress at higher concentrations, leading to the inhibition of gene expression in general.
Figure 1 Concentration-dependent biphasic effects of 1–4 on HIF-1 activation. (A) Structures of psammaplins isolated from Dendrilla lacunosa. (B) Concentration-response results of 1–5 in T47D cells transfected with pHRE-luc for HIF-1 activity. Test compounds were added at the increasing concentrations of 0.1, 0.3, 1, 3, 10, and 30 µM, as specified. The positive control 1,10-phenanthroline (1,10-phen) was used at 10 µM. Data shown are average ± standard deviation (n = 3). (C) Similar to described in (B) except that the pHRE-luc transfected T47D cells were exposed to test compounds in the presence of 10 µM 1,10-phen, and the data were normalized to the positive control (1,10-phen). (D) Similar to described in (C) except that hypoxic exposure (1% O2: 5% CO2: 94% N2, 16 h) was applied in place of 1,10-phen. (E) As described in (B) except that T47D cells were transfected with the pGL3-control construct. An asterisk “*” indicates p < 0.05 when compared to the controls (“Media” for B, D, and E; and “1,10-phen” for C).
To monitor HIF-1 activity, T47D cells were transfected with the pHRE3-TK-Luc construct and the cell-based luciferase reporter assay was performed as described. Cells were exposed to test compounds in the absence and presence of 1,10-phenanthroline (10 μM) or hypoxic conditions (1% O2: 5% CO2: 94% N2) for 16 h. The cells were lysed and luciferase activity determined with a commercial kit (Promega, Madison, WI, USA). For the cell-based control reporter assay, T47D cells were transfected with the pGL3-control construct (Promega, Madison, WI, USA), exposed to test compounds for 16 h, and the luciferase reporter assay performed as described.

[2] = test system: HDAC; assay: MDA-MB-435 cell-based HDAC assay (HDAC-Glo); settings: MDA-MB-435 cells, 30 min incubation, n = 6 pooled from two experiments
Procedure: Test compounds were added at specified concentrations to exponentially grown cells plated in 96-well plates. After 30 min incubation, the HDAC activity was determined using a commercial kit (HDAC-Glo™, Promega, Madison, WI, USA) and normalized to that of the dimethyl sulfoxide (DMSO) solvent control.
Exponentially grown cells were seeded at the density of 5000 cells/well into 96-well plates (Corning, Corning, NY, USA) and incubated overnight. Compounds dissolved in DMSO were added to achieve the specified final concentrations (total volume: 100 μL, DMSO: 0.5%). The incubation continued for 30 min at 37 °C and the HDAC activity determined using a commercial luminescent assay (HDAC-Glo™, Promega, Madison, WI, USA).

[3] = test system: CDKN1A mRNA; assay: Quantitative real time RT-PCR of CDKN1A mRNA in T47D cells; assay type: cell-based, human; settings: 16 h
Text: (§1) Around 100 genes have been identified as HIF-1 target genes that encode proteins involved in various aspects of cellular physiology. While most of these genes are regulated in a cell type-specific manner, some are induced upon HIF-1 activation in most cell types. Based on availability and potency, compound 4 (a stereoisomer of 2) was selected for follow-up studies. The effects of 4 on the expression of HIF-1 target genes cyclin dependent kinase inhibitor 1A (CDKN1A) and vascular endothelial growth factor A (VEGFA) were examined by quantitative real time RT-PCR (Figure 2). The HIF-1 activator 1,10-phen (10 μM) and the pan-HDAC inhibitor TSA (0.1 and 1 μM, respectively) were included as positive controls. […]
(§2) Figure 2 Effects of 4 and trichostatin A (TSA) on HIF-1 target gene expression. […] The levels of cyclin dependent kinase inhibitor 1A (CDKN1A) (A) and vascular endothelial growth factor (VEGF) (B) mRNA following treatments were determined by quantitative real time RT-PCR. […] The levels of cellular (C) and secreted VEGF protein (D) were determined by ELISA and normalized to the amount of cellular proteins. […]
The effects of test samples on HIF-1 target gene expression were assessed in T47D cells. To determine the levels of CDKN1A and VEGF mRNA, quantitative real-time RT-PCR was performed as described. […]

[4] = test system: VEGF mRNA; assay: Quantitative real time RT-PCR of VEGF mRNA in T47D cells; assay type: cell-based, human; settings: 16 h, concentrations tested
Text: as §1, with “controls. In T47D cells, 4 and TSA each increased the levels of CDKN1A mRNA in a concentration-dependent manner (2.9-fold for 4 at 10 μM and 7.2-fold for TSA at 1 μM, Figure 2A). In contrast, neither 4 nor TSA exerted greater than 20% effect on the levels of VEGF mRNA (Figure 2B).” for “controls.”
as §2
(§3) The effects of test samples on HIF-1 target gene expression were assessed in T47D cells. To determine the levels of CDKN1A and VEGF mRNA, quantitative real-time RT-PCR was performed as described. To determine the levels of cellular and secreted VEGF proteins, T47D cells were exposed to compounds as described, the levels of VEGF proteins in the conditioned medium and cell lysate samples determined by ELISA [21], the amount of proteins in the cell lysate samples quantified using a micro BCA assay kit (Thermo Fisher Scientific, Rockford, IL, USA), and the level of VEGF proteins normalized to that of cellular proteins.

[5] = test system: VEGF protein; assay: ELISA of cellular and secreted VEGF proteins in T47D cells; assay type: cell-based, human; settings: normalized to cellular proteins
Text: Around 100 genes have been identified as HIF-1 target genes that encode proteins involved in various aspects of cellular physiology. While most of these genes are regulated in a cell type-specific manner, some are induced upon HIF-1 activation in most cell types. Based on availability and potency, compound 4 (a stereoisomer of 2) was selected for follow-up studies. The effects of 4 on the expression of HIF-1 target genes cyclin dependent kinase inhibitor 1A (CDKN1A) and vascular endothelial growth factor A (VEGFA) were examined by quantitative real time RT-PCR (Figure 2). The HIF-1 activator 1,10-phen (10 μM) and the pan-HDAC inhibitor TSA (0.1 and 1 μM, respectively) were included as positive controls. In T47D cells, 4 and TSA each increased the levels of CDKN1A mRNA in a concentration-dependent manner (2.9-fold for 4 at 10 μM and 7.2-fold for TSA at 1 μM, Figure 2A). In contrast, neither 4 nor TSA exerted greater than 20% effect on the levels of VEGF mRNA (Figure 2B). The gene VEGF encodes vascular endothelial growth factor A (a potent angiogenic factor) and agents that inhibit VEGF are in clinical use for cancer. The expression of cellular and secreted VEGF proteins was examined in T47D cells by ELISA assay.
Figure 2 Effects of 4 and trichostatin A (TSA) on HIF-1 target gene expression. T47D cells were exposed to 4 and TSA at the specified concentrations for 16 h. The compound 1,10-phen (10 µM) was included as a positive control. The levels of cyclin dependent kinase inhibitor 1A (CDKN1A) (A) and vascular endothelial growth factor (VEGF) (B) mRNA following treatments were determined by quantitative real time RT-PCR. Relative levels of target gene mRNA normalized to an internal control (18S rRNA) are shown as average ± standard deviation (n = 3, one representative experiment). The levels of cellular (C) and secreted VEGF protein (D) were determined by ELISA and normalized to the amount of cellular proteins. Data shown are average + standard deviation (n = 3). An asterisk “*” indicates p < 0.05 when compared to the media control.
as §3

[6] = test system: BoM spheroids; assay: Cultrex 3D spheroid cell invasion assay; assay type: cell-based, human; settings: for invasion of BoM spheroids into the extracellular matrix: 96 h (T96), 4 and TSA at 48 h proliferation IC50
Procedure: In order to form metastatic lesions, metastasis-initiating tumor cells must invade and intravasate into the lymphatic vasculature and/or blood vessels. Psammaplins were evaluated in a Cultrex® 3-D cell invasion assay that monitors the invasion and migration of tumor cells grown as spheroids, which closely model in vivo pathophysiological conditions.
Figure 5 Inhibition of bone metastatic BoM cell invasion. Tumor cell spheroids formed in a special spheroid formation extracellular matrix (ECM) were embedded in an invasion matrix containing 10% fetal bovine serum (FBS) in the presence and absence of compounds at the specified concentrations. Four days later (T96), cell invasion was recorded microscopically (the bar at the bottom right represents 100 µm).
The 3D spheroid cell invasion assay was performed using a commercial kit, following the manufacturer’s instructions (Cultrex® 3D Spheroid Cell Invasion Assay, Trevigen, Gaithersburg, MD, USA). Briefly, exponentially grown MDA-MB-231, LM, BoM, and BrM cells were trypsinized, collected, and resuspended in serum-free DMEM/F12 media. For spheroid formation, 3000 cells were added in a volume of 50 µL serum-free DMEM/F12 media with 1× spheroid formation solution/well into a pre-cooled 96-well plate. The plate was centrifuged at 100× g for 5 min at 4 °C, incubated at 37 °C for 24 h, and the spheroids imaged using an Axiovert 40 CFL microscope (Zeiss, Oberkochen, Germany). The plate was placed on ice, the invasion mix added in a volume of 50 µL/well, centrifuged at 350× g for 5 min at 4 °C, and incubated at 37 °C for 1 h. Test compounds and controls were diluted to two times the final concentrations in DMEM/F12 media supplemented with FBS (10%) and antibiotics, and added in a volume of 100 µL/well. The incubation continued for another 4 days at 37 °C and the cells/spheroids imaged (T96).

[7] = test system: T47D, MDA-MB-231, LM, BoM, BrM cells; assay: Clonogenic assay; assay type: cell-based, human; settings: 24 h exposure, 10 days; 1 µM paclitaxel and TSA, 10 µM 1–5
Procedure: The effects of psammaplins on the colony-forming ability of single cells were assessed in a clonogenic assay. Cells seeded at low density were exposed to test compounds at the specified concentrations for 24 h. The conditioned media were replaced with growth media and the colonies formed from surviving single cells in 10 days.
Figure 4 Effects of 1–5 and TSA (trichostatin A) on colony formation. Cells plated at low density were exposed to compounds (24 h) at specified concentrations (1 µM for paclitaxel and TSA, and 10 µM for 1–5). After a period of ten days, the cells were fixed and stained.
For the clonogenic assay, exponentially grown cells were seeded at the density of 1000 cells/well into 6-well plates (Cellstar®, Greiner Bio-One GmbH, Kremsmünster, Austria) and incubated at 37 °C for 4 h to allow the cells to adhere. Compound addition was similar as above. After 24 h, the compound-containing conditioned media were replaced with fresh medium containing FBS (10%) and antibiotics. The incubation continued for another 10 days with a change of fresh medium every 5 days, the cells were fixed with methanol and stained with crystal violet (1 mg/mL in 20% ethanol), and the images were acquired with a Kodak digital camera.

O=C(NCCSSCCNC(=O)/C(Cc1cc(O)c(O)c(Br)c1)=N/O)/C(Cc1ccc(O)c(Br)c1)=N/O [Compound 3, (E,E)-psammaplin K]
HIF-1 activation (highest level) ([1]; T47D pHRE-luc, 10 μM, 16 h, no stimulus, n = 3): 10.15 ± 0.66 fold | normalized ratio of pHRE-luc/pGL3-control ([1]; 10 μM): 2.38 fold | IC50 [2]: 38 nM

O=C(NCCSSCCNC(=O)/C(Cc1ccc(O)c(Br)c1)=N/O)/C(Cc1ccc(O)c(Br)c1)=N/O [Compound 4, (E,E)-psammaplin A]
HIF-1 activation (highest level) ([1]; T47D pHRE-luc, 3 μM, 16 h, no stimulus, n = 3): 11.01 ± 0.71 fold | normalized ratio of pHRE-luc/pGL3-control ([1]; 3 μM): 2.30 fold | increase in CDKN1A mRNA level ([3]; 10 μM): 2.9 fold | effect on the levels of VEGF mRNA [4]: ≤ 20% | VEGF expression, cellular protein [5]: None of the HDAC inhibitors examined (4 and TSA) increased VEGF protein levels | VEGF expression, secreted protein [5]: None of the HDAC inhibitors examined (4 and TSA) increased VEGF protein levels | invasion of BoM spheroids into the extracellular matrix [6]: inhibited the invasion of BoM spheroids; also recorded: inhibited this invasion | IC50 [2]: 37 nM

O=C(NCCSSCCNC(=O)/C(Cc1cc(Br)c(O)c(-c2cc(C/C(=N\O)C(=O)NCCSSCCNC(=O)/C(Cc3ccc(O)c(Br)c3)=N/O)cc(Br)c2O)c1)=N/O)/C(Cc1ccc(O)c(Br)c1)=N/O [Compound 5, bisaprasin]
HIF-1 activation ([1]; T47D pHRE-luc, 30 μM, 16 h, no stimulus, n = 3): 2.17 ± 0.13 fold | effect on HIF-1 activity in the presence of other stimuli ([1]; T47D pHRE-luc, with 1,10-phenanthroline (10 µM) or hypoxia (1% O2), 16 h): inhibited HIF-1 activation at higher concentrations | IC50 [2]: 948 nM

CC(/C=C/C(=O)NO)=C\[C@@H](C)C(=O)c1ccc(N(C)C)cc1 [TSA, trichostatin A]
increase in CDKN1A mRNA level ([3]; 1 μM): 7.2 fold | effect on the levels of VEGF mRNA [4]: ≤ 20% | VEGF expression, cellular protein [5]: None of the HDAC inhibitors examined (4 and TSA) increased VEGF protein levels | VEGF expression, secreted protein [5]: None of the HDAC inhibitors examined (4 and TSA) increased VEGF protein levels | invasion of BoM spheroids into the extracellular matrix [6]: inhibited the invasion of BoM spheroids

CC(=O)O[C@H]1C(=O)[C@@]2(C)[C@H]([C@H](OC(=O)c3ccccc3)[C@]3(O)C[C@H](OC(=O)[C@H](O)[C@@H](NC(=O)c4ccccc4)c4ccccc4)C(C)=C1C3(C)C)[C@]1(OC(C)=O)CO[C@@H]1C[C@@H]2O [paclitaxel]
colony formation [7]: blocked colony formation in all cell lines | size of the spheroids ([6]; 96 h, in comparison to the HDAC inhibitors): more pronounced decrease in the size of the spheroids

Source: article PMC6265740, “Biochemical and Anti-Triple Negative Metastatic Breast Tumor Cell Properties of Psammaplins” (Marine Drugs, 2018)
